Experimental data reported in patent US11033574B2, “Method for treating schizophrenia” (MiZ Company Limited, priority 2018, dated 2021).

Test system: schizophrenia
Procedure: At the initiation of hydrogen gas inhalation, a drug therapy with Abilify (intramuscular injection, 400 mg/month, once) and Lexotan tablets (oral administration, 6 mg/day, 3 times per day) was carried out.
Conditions of hydrogen gas inhalation were as follows:
For 40 days after initiation of inhalation: once per day, 70 mL/minute;
The subsequent 1 month: 2 hours per day, 70 mL/minute, hydrogen gas concentration: 3.0 to 4.0%;
The subsequent 4 months: 2 hours per day, 140 mL/minute, hydrogen gas concentration: 6.0 to 7.0%;
The subsequent 4 months: 6 hours per day, 280 mL/minute, hydrogen gas concentration: 6.0 to 7.0% (two hydrogen inhalers were used).
Thereafter, the patient was allowed to inhale hydrogen gas (6.0 to 7.0%, 280 mL/minute) for 6 hours/day, continuously for 9 months.

[1] = about 10 months after initiation of hydrogen inhalation

## [HH] [hydrogen gas]
Abilify intramuscular injection, 400 mg/month
  time for which injection of a medicine (once a month) was continued after initiation of hydrogen inhalation, thereafter stopped: 8 months
Lexotan tablets, oral, 6 mg/day, hydrogen once per day, 70 mL/minute
  time after initiation of hydrogen inhalation at which administration of the oral medicine was terminated: Ten
[1]
  disease-state in the period during which hydrogen inhalation was continued: stably maintained
  phase of the disease: recovery phase
Brotizolam tablet, 0.25 mg/day
  time after initiation of inhalation when use of the sleeping pill was stopped: About 6 months
Brotizolam tablet, 0.25 mg/day, every day at initiation
  time after initiation of inhalation when the patient started to fall asleep without taking the sleeping pill: about 2 months
Examination in January of 2019
  value of the patient in the examination: the same as in a healthy person
Further 9 months of hydrogen gas 6.0 to 7.0%, 280 mL/minute, 6 hours/day
  disease state according to medical examination during an office visit: stable
Inhalation stopped in March of 2019
  recurrence after inhalation of hydrogen gas was stopped: no recurrence occurred
patient, schizophrenia onset 13 years ago, on Abilify and Lexotan, after initiation of hydrogen inhalation, 3.0 to 6.0%
  consecutive symptom, hallucination: disappeared
